Measured values from publication PMC5458078, “Global mapping of CARM1 substrates defines enzyme specificity and substrate recognition” (Nature Communications, 2017).

Tests used:
MCF7 cells = assay: Quantitative nanoLC-MS/MS (TMT) of ADMA-containing peptides, CARM1 KO vs parental; type: cell-based, human; parameters: Fold change KO/WT: scale not given here
MCF7 CARM1 KO cells = assay: Quantitative MS of ADMA-containing peptides in MCF7 CARM1 KO cells expressing CARM1 28-608 or CARM1 140-608, and in CARM1 KO; type: cell-based, human
[1] = MCF7 CARM1 knockout vs wild type, 3 biological replicates each, values are on log2 scale
[2] = MCF7, CARM1 knockout vs wild type, n = 3 each
[3] = ADMA-containing peptide, MCF7, CARM1 knockout (KO1-3) vs wild type (WT1-3), TMT 6-plex experiment #1
[4] = CARM1 KO vs wild type MCF7 cells, 3 biological replicates each
[5] = MCF7, CARM1 KO vs WT, three biological replicates each
[6] = MCF7, CARM1 KO (KO1-KO3) vs wild type (WT1-WT3)
[7] = ADMA-containing peptide, CARM1 knockout (KO) vs wild type (WT) MCF7 cells, 6-plex TMT experiment #1, three biological replicates each, sheet "MCF7"
[8] = ratio on log2 scale, mean of 3 replicates

GPQWKRGArGGNLVTGTQr
Fold change KO/WT (MCF7 cells; [1]): -0.2728

GGFQNrGGGSGGGGNYrGGFNR
Fold change KO/WT (MCF7 cells; [1]): 0.1419

LDrICEGIRPQIMNGPLHPRPLVALLDGR
Fold change KO/WT (MCF7 cells; [2]): -0.535

LPPDRYCLTAPNYrLK
Fold change KO/WT (MCF7 cells; [3]): -0.4021

AAGMTPLYAGQrLPQHGYPGPPQAQPLPrQGVK
Fold change KO/WT (MCF7 cells; [4]): -1.882

TYSEVYPGQQYLQGGQYAPSTAQFAPSPGQPPAPSPSYPGHrLPLQQGMTQSLSVPGPTGLHYKPTR
Fold change KO/WT (MCF7 cells; [4]): -2.904

EELLrHQLLEKR
Fold change KO/WT (MCF7 cells; [5]): -2.786

LSLPPIHTLYQPrFGNSQSFTSK
Fold change KO/WT (MCF7 cells; [3]): -2.191

TGFTNIPSrYGTNNR
Fold change KO/WT (MCF7 cells; [6]): -2.195

QVTITGSAASISLAQYLINAr
Fold change KO/WT (MCF7 cells; [7]): -0.8472

LLGQRPGPYDrPIGGrGGYYGAGrGSMYDR
Fold change KO/WT (MCF7 cells; [1]): -0.2245

SYrGGGGGGGGWR
Fold change KO/WT (MCF7 cells; [3]): -0.08168

TEQAGrNALLSDISK
Fold change KO/WT (MCF7 cells; [4]): -1.119

TLLrGGMSLrGQNLLrGGR
Fold change KO/WT (MCF7 cells; [5]): 0.06328

PABP1: a known CARM1 substrate
Decrease of ADMA site abundance on CARM1 loss (MCF7 cells; CARM1 KO vs parental MCF7 cells): slightly over twofold

DLVILLYETALLSSDFGLEGPQTHANr
Fold change KO/WT (MCF7 cells; [1]): 0.05306

LISVQTMQrGNMNCGAFQAHQMR
Fold change KO/WT (MCF7 cells; [3]): -0.03531

AFHDYSAAAAPSPVLGNIPPNDGMPGGPIPPGFFQPFMSPrYAGGPrPPIR
Fold change KO/WT (MCF7 cells; [3]): -2.246

QGSIGLYTQNQPLPAGGPRVDPYrPVRLPMQK
Fold change KO/WT (MCF7 cells; [7]): -1.665

LTrGQLQHLGTR
Fold change KO/WT (MCF7 cells; [4]): 0.1695

MGTPVPRPPQDMGQIGVrTPLGPR
CARM1 140-608/WT (MCF7 CARM1 KO cells; CARM1 140-608 vs WT, mean of 3 replicates (log2 scale)): -1.0135 | KO/WT (MCF7 CARM1 KO cells; KO vs WT, mean of 3 replicates (log2 scale)): -2.444

GAEAANVTGPDGVPVEGSrYAADR
Fold change KO/WT (MCF7 cells; [4]): -1.299

PVPPPPAPPPPPTFALANTEKPTLNKTEQAGrNALLSDISK
Fold change KO/WT (MCF7 cells; [4]): -1.049

EHGAAASErLQLGTPPPLLAArLVPPR
CARM1 140-608/WT (MCF7 CARM1 KO cells; CARM1 140-608 versus WT, mean of three replicates (log2)): -0.1041 | KO/WT (MCF7 CARM1 KO cells; KO versus WT, mean of three replicates (log2)): -0.4942

TGALPGPGPLSNPrLGGLPGPGPMSNPrAGGLLGAGPDPrGGGPMGPGSGPNLR
Fold change KO/WT (MCF7 cells; [5]): -2.513

SYSrGGGDQGYGSGR
Fold change KO/WT (MCF7 cells; [6]): -0.3099

FLQPrLAPNQPPPPLIrPALAAPRHSARPGPQPPPTLIGTPLEPPAPSL
Fold change KO/WT (MCF7 cells; [6]): -2.908

AYSSFGGGrGSR
Fold change KO/WT (MCF7 cells; [2]): -0.1369

SSGSPYGGGYGSGGGSGGYGSrRF
Fold change KO/WT (MCF7 cells; [2]): -0.5008

GPSGGYrGSGGFQrGGGrGAYGTGYFGQGR
Fold change KO/WT (MCF7 cells; [2]): 0.2112

LLGQRPGPYDrPIGGRGGYYGAGrGSMYDR
Fold change KO/WT (MCF7 cells; [1]): 0.09272

DLYANTVLSGGSTMYPGIADr
Fold change KO/WT (MCF7 cells; [5]): 0.2012

MGTPVPRPPQDMGQIGVrTPLGPrVAAPVGPVGPTPTVLPMGAPVPrPRGPPPPPGDENR
Fold change KO/WT (MCF7 cells; [6]): -1.953

FEGSPGLrFEGSPGGLrFEGPGGQPVGGLrFEGHR
Fold change KO/WT (MCF7 cells; [7]): -0.8785

FFHMPrFQHQAPrQLFYK
Fold change KO/WT (MCF7 cells; [4]): -1.814

MGTPVPRPPQDMGQIGVrTPLGPRVAAPVGPVGPTPTVLPMGAPVPrPR
Fold change KO/WT (MCF7 cells; [6]): -3.4667

INPGLEYrQHLLLrGPPPGSANPPR
Fold change KO/WT (MCF7 cells; [1]): -0.6044

QLrMQLQQR
Fold change KO/WT (MCF7 cells; [7]): -2.307

MGTPVPrPPQDMGQIGVRTPLGPR
Fold change KO/WT (MCF7 cells; [6]): -2.466

VPASPQSQSSSQSPLTPrPLSAEAFCPSPVTPRFQSPDPYSRPPSRPQSR
Fold change KO/WT (MCF7 cells; [1]): -2.744

SAGGRPGSGPQLGTGrGTLR
Fold change KO/WT (MCF7 cells; [2]): -0.3785

GGrFSAQGMGTFNPADYAEPANTDDNYGNSSGNTWNNTGHFEPDDGTSAWR
Fold change KO/WT (MCF7 cells; [4]): -0.4035

MGTPVPRPPQDMGQIGVRTPLGPrVAAPVGPVGPTPTVLPMGAPVPrPrGPPPPPGDENR
Fold change KO/WT (MCF7 cells; [6]): -3.578

ICEGIrPQIMNGPLHPRPLVALLDGR
CARM1 140-608/WT (MCF7 CARM1 KO cells; [8]): -0.2372 | KO/WT (MCF7 CARM1 KO cells; [8]): -0.9025

QGSIGLYTQNQPLPAGGPrVDPYrPVRLPMQK
Fold change KO/WT (MCF7 cells; [7]): -2.102

SNSGPYrGGYGGGGGYGGSSF
Fold change KO/WT (MCF7 cells; [2]): -0.1493
